Here are results for 62 molecules from ChEMBL document CHEMBL5126544, “Recent results from non-basic glycosidase inhibitors: How structural diversity can inform general strategies for improving inhibition potency” (Eur J Med Chem, 2022).

The species named for one assay is Homo sapiens. The assay is described as follows: Potency index, ratio of acarbose IC50 to test compound IC50 for inhibition of alpha-glucosidase (unknown origin) using PNP glycoside as substrate preincubated for 30 mins followed by substrate addition and measured after 60 mins by spectrophotometric analysis. To be noted: time 90.0 min.
Turning to `Oc1ccc(-c2nc3ccc(Br)cc3[nH]2)cc1`, the Ratio IC50 is 5.

System in another assay: not listed separately
The experiment in a line: Inhibition of recombinant Streptococcus pneumoniae NanB using MUNANA as substrate.
Details: not given
Consider `Cc1cccc(CNCCS(=O)(=O)O)c1`, for which the IC50 amounted to 57 µM. The same measure, in the same setting: the result for `O=S(=O)(O)CCNCc1cccc(Cl)c1` reads 39 µM.

Molecular target in another assay: not listed separately
The experiment in a line: Inhibition of baker's yeast alpha-glucosidase using PNPG as substrate preincubated for 10 mins followed by substrate addition and measured after 30 mins by microplate reader analysis. Further details: species or system Saccharomyces cerevisiae.
Details: not given
On to `COc1ccc(/C=N/NC(=O)c2ccc(-c3nc4cc(C)c(C)cc4[nH]3)cc2)c(O)c1`, for which the IC50 was determined as 8 µM. Consider `Cc1cc2nc(-c3ccc(C(=O)N/N=C/c4ccc(O)c(O)c4)cc3)[nH]c2cc1C`, for which the IC50 amounted to 12 µM. On the same count and under the same terms, the result for `Cc1cc2nc(-c3ccc(C(=O)N/N=C/c4cccc(O)c4O)cc3)[nH]c2cc1C` reads 8 µM; that for `Cc1cc2nc(-c3ccc(C(=O)N/N=C/c4ccc(O)cc4O)cc3)[nH]c2cc1C`, 8 µM.

Consider `COc1ccc(O)cc1/C=N/NC(=O)c1ccc(-c2nc3cc(C)c(C)cc3[nH]2)cc1`, for which half-maximal inhibition (IC50) required 8 µM. Same read-out and setting: the result for `Cc1cc2nc(-c3ccc(C(=O)N/N=C/c4cc(O)ccc4O)cc3)[nH]c2cc1C` reads 8 µM; that for `Cc1cc2nc(-c3ccc(C(=O)N/N=C/c4cc(O)c(O)c(O)c4)cc3)[nH]c2cc1C`, 8 µM.

Molecular target in the next assay: not listed separately
The experiment in a line: Inhibition of Bacillus stearothermophilus alpha-glucosidase using PNP-G as substrate incubated for 20 mins. Set-up: species or system Geobacillus stearothermophilus.
Details: not given
In turn, `CCCCCCC1(CCCCCC)O[C@H]2Cc3c(O)cc(O)cc3O[C@@H]2c2cc(O)c(O)cc21` displayed an IC50 of 1.1 µM. Same read-out and setting: to `CC1(C)O[C@H]2Cc3c(O)cc(O)cc3O[C@@H]2c2cc(O)c(O)cc21` belongs 0.7 µM.

Molecular target in another assay: not listed separately
The experiment in a line: Inhibition of saccharomyces cerevisiae alpha-glucosidase using PNP-G as substrate incubated for 20 mins.
Details: not given
Regarding `CCCCC1(CCCC)O[C@H]2Cc3c(O)cc(O)cc3O[C@@H]2c2cc(O)c(O)cc21`, the half-inhibitory concentration (IC50) came to 2.1 µM. Same read-out and setting: the result for `CCCCCCC1(CCCCCC)O[C@H]2Cc3c(O)cc(O)cc3O[C@@H]2c2cc(O)c(O)cc21` reads 0.9 µM; that for `CC1(C)O[C@H]2Cc3c(O)cc(O)cc3O[C@@H]2c2cc(O)c(O)cc21`, 1.2 µM.

Molecular target in another assay: not listed separately
The experiment in a line: Inhibition of baker's yeast alpha-glucosidase using PNP-G as substrate preincubated for 10 mins followed by substrate addition and measured after 20 mins.
Details: not given
Further details: species or system Saccharomyces cerevisiae.
Molecule `CCOC(=O)/C=C/c1ccc(OC)cc1` [4-METHOXY ETHYL CINNAMATE] showed an IC50 of 50 µM. Same read-out and setting: to `COc1ccc(/C=C/C(=O)O)cc1` [4-METHOXYCINNAMIC ACID] belongs 44 µM.

Molecular target in a further assay: not listed separately
The experiment in a line: Inhibition of saccharomyces cerevisiae alpha-glucosidase using pNPG as substrate preincubated for 15 mins followed by substrate addition.
Details: not given
As to `COc1ccc(-c2nc3cccc(C)c3[nH]2)c(O)c1`, it took 30 µM to reach half-maximal inhibition (IC50).

Molecule `COc1ccc(O)c(-c2nc3cccc(C)c3[nH]2)c1` had an IC50 of 45 µM. The molecule `Cc1cccc2nc(-c3ccccc3O)[nH]c12` showed an IC50 of 16 µM. Same read-out and setting: to `Cc1cccc2nc(-c3ccccc3Cl)[nH]c12` belongs 5 µM; to `Cc1cccc2nc(-c3ccccc3[N+](=O)[O-])[nH]c12`, 45 µM. `Cc1cccc2nc(-c3ccccc3F)[nH]c12` gave an IC50 of 34 µM. The same measure, in the same setting: the result for `Cc1cccc2nc(-c3ccc(O)c(O)c3)[nH]c12` reads 25 µM.

Molecular target in another assay: not listed separately
The assay is described as follows: Inhibition of Bacillus stearothermophilus alpha-glucosidase type IV using p-nitrophenyl-alpha-D-glucopyranoside as substrate preincubated for 15 mins followed by substrate addition and measured after 35 mins by microtiter plate reader analysis. Further details: species or system Geobacillus stearothermophilus.
Details: not given
In the case of `COc1cc([C@@H]2c3c(O)cc(O)cc3[C@@H]3[C@H]2CO[C@H]3c2ccc(O)c(O)c2)cc(OC)c1O`, the IC50 turned out to be 11 µM. Still for that read-out and setting: the result for `Oc1cc(O)cc(/C=C/c2cc(O)c(O)c(O)c2)c1` reads 19 µM; that for `COc1cc([C@@H]2c3c(O)cc(O)cc3[C@@H]3[C@H]2CO[C@H]3c2cc(O)c(O)c(O)c2)cc(OC)c1O`, 6.5 µM; that for `Oc1cc(O)cc(/C=C/c2ccc(O)c(O)c2)c1` [PICEATANNOL], 23 µM. Still for that read-out and setting: the result for `Oc1ccc(/C=C/c2cc(O)cc(O)c2)cc1` [RESVERATROL] reads 24 µM; that for `Oc1ccc(/C=C/c2cc(O)cc3c2[C@H](c2cc(O)cc(O)c2)[C@@H](c2ccc(O)c(O)c2)O3)cc1` [SCIRPUSIN A], 8.3 µM; that for `Oc1cc(O)cc(/C=C/c2cc(O)c(O)c3c2[C@H](c2cc(O)cc(O)c2)[C@@H](c2cc(O)c(O)c(O)c2)O3)c1`, 4.9 µM.

Molecular target in another assay: not listed separately
The experiment in a line: Inhibition of human alpha-fucosidase.
Details: not given
Regarding `C[C@@H]1N[C@H](CNC(=O)CCc2c[nH]c3ccccc23)[C@@H](O)[C@H](O)[C@@H]1O`, the affinity, expressed as Ki, was 0.000105 µM. In turn, `CC(=O)NC[C@H]1N[C@@H](C)[C@@H](O)[C@@H](O)[C@@H]1O` displayed a Ki of 0.00447 µM.

Molecular target in the next assay: not listed separately
The experiment in a line: Inhibition of beta glucosidase (unknown origin).
Details: not given
Set-up: species or system Homo sapiens.
Consider `O[C@H]1[C@@H](O)Cn2cc(CCc3ccccc3)nc2[C@@H]1O`, for which the Ki was determined as 0.004 µM. Take `O[C@H]1[C@@H](O)Cn2ccnc2[C@@H]1O`: the affinity corresponds to a Ki of 0.001 µM.

Molecular target in another assay: not listed separately
The assay is described as follows: Inhibition of alpha-glucosidase (unknown origin) using PNP glycoside as substrate preincubated for 30 mins followed by substrate addition and measured after 60 mins by spectrophotometric analysis.
Details: not given
The molecule `Brc1cccc(-c2nc3ccc(Br)cc3[nH]2)c1` showed an IC50 of 21 µM. Still for that read-out and setting: the result for `Oc1ccc(-c2nc3ccc(Br)cc3[nH]2)cc1` reads 8 µM; that for `COc1ccc(-c2nc3ccc(Br)cc3[nH]2)c(O)c1`, 38 µM. `Oc1ccccc1-c1nc2ccc(Br)cc2[nH]1` returned an IC50 of 38 µM. Still for that read-out and setting: to `CCCCOc1ccc(-c2nc3ccc(Br)cc3[nH]2)cc1` belongs 25 µM.

Molecular target in another assay: not listed separately
The assay is described as follows: Inhibition of alpha-amyloglucosidase (unknown origin) assessed as reduction in conversion of starch to glucose using starch as substrate preincubated with substrate for 20 mins followed by enzyme addition and measured after 30 mins.
Details: not given
On to `O=C1NC(=O)C(Cc2ccc(CNc3nc4ccccc4n3Cc3ccccc3)cc2)S1` (stereo not drawn), for which the IC50 was 5 µM. Still for that read-out and setting: the result for `O=C1NC(=O)C(Cc2ccc(Nc3nc4ccccc4n3Cc3ccccc3)cc2)S1` (stereo not drawn) reads 4 µM. Same read-out and setting: to `Cn1c(NCc2ccc(CC3SC(=O)NC3=O)cc2)nc2ccccc21` (stereo not drawn) belongs 9 µM; to `Cn1c(Nc2ccc(CC3SC(=O)NC3=O)cc2)nc2ccccc21` (stereo not drawn), 9 µM.

Molecular target in the next assay: not listed separately
The assay is described as follows: Inhibition of saccharomyces cerevisiae alpha-glucosidase using p-nitrophenyl-alpha-D-glucopyranoside as substrate preincubated for 15 mins followed by substrate addition and measured after 20 mins by spectrophotometric analysis.
Details: not given
With `O=[N+]([O-])c1ccc2nc(Cc3ccc(Cl)cc3Cl)n(Cc3nnc(S)o3)c2c1`, it took 27 µM to reach half-maximal inhibition (IC50).

With `O=[N+]([O-])c1ccc2nc(Cc3ccc(Cl)cc3Cl)n(Cc3nnc(S)n3-c3ccccc3)c2c1`, inhibition was half-maximal at 40 µM (IC50). Same read-out and setting: the result for `NNC(=O)Cn1c(Cc2ccc(Cl)cc2Cl)nc2ccc([N+](=O)[O-])cc21` reads 10 µM.

Molecular target in another assay: not listed separately
The experiment in a line: Inhibition of alpha-glucosidase (unknown origin) using p-nitrophenyl-alpha-D-glucopyranoside as substrate preincubated for 10 mins followed by substrate addition and measured after 30 mins.
Details: not given
Consider `O=C1c2c(Cl)c(Cl)c(Cl)c(Cl)c2C(=O)N1CCc1ccccc1`, for which half-maximal inhibition (IC50) was put at 6 µM. `O=C1c2c(Cl)c(Cl)c(Cl)c(Cl)c2C(=O)N1CCCCc1ccccc1` yielded an IC50 of 2 µM.

Take `O=C1c2c(Cl)c(Cl)c(Cl)c(Cl)c2C(=O)N1CCCCCCc1ccccc1`: 7 µM corresponded to half-maximal inhibition (IC50). Molecule `O=C1c2c(Cl)c(Cl)c(Cl)c(Cl)c2C(=O)N1CCCCCc1ccccc1` had an IC50 of 3.5 µM. Same read-out and setting: to `O=C1c2c(Cl)c(Cl)c(Cl)c(Cl)c2C(=O)N1CCCc1ccccc1` belongs 4.5 µM; to `O=C1c2c(Cl)c(Cl)c(Cl)c(Cl)c2C(=O)N1Cc1ccccc1`, 11 µM.

Molecular target in a further assay: not listed separately
The assay is described as follows: Inhibition of saccharomyces cerevisiae alpha-glucosidase using PNPG as substrate preincubated for 2 mins followed by substrate addition for 15 mins by microplate reader analysis.
Details: not given
With `C/C(=C\O)[C@@H]1OC(=O)[C@H]2O[C@@]23[C@@]1(C)CC[C@@H]1[C@@]2(CCC(=O)[C@]13C)COC(=O)C[C@@H]2O`, the IC50 was 102 µM.

Regarding `COc1cc2ccc(=O)oc2cc1O` [SCOPOLETIN], it took 4.6 µM to reach half-maximal inhibition (IC50). Regarding `C/C=C(\C)C(=O)NCCc1ccc(OCC=C(C)C)cc1`, the IC50 is 195 µM. Take `COC(=O)/C=C/c1ccc(OCC=C(C)C)c(OC)c1`: the IC50 is 98 µM.

Molecular target in a further assay: not listed separately
The assay is described as follows: Inhibition of Caldocellum-saccharolyticum […] using 4-nitrophenyl beta-d-glucopyranoside preincubated for 30 to 60 mins followed by substrate addition. Further details: species or system Caldicellulosiruptor saccharolyticus.
Details: not given
Consider `OC[C@@H]1[C@@H](O)[C@H](O)[C@@H](O)c2nccn21`, for which the Ki is 0.02 µM. As for `OC[C@@H]1[C@@H](O)[C@H](O)[C@@H](O)c2nc(CCc3ccccc3)cn21`, the Ki was 0.00011 µM.

In the next assay the test system is Rattus norvegicus. The experiment in a line: Hypoglycemic activity in Wistar rat assessed as reduction in postprandial blood glucose level at 10 mg/kg, po administered for 10 mins followed by sucrose challenge and measured after 30 mins post oral sucrose challenge. The class given is functional. Further details: scale not given: the % may be the effect or the level left. The note with it: time 40 min.
`COc1cc([C@@H]2c3c(O)cc(O)cc3[C@@H]3[C@H]2CO[C@H]3c2ccc(O)c(O)c2)cc(OC)c1O`: the Activity is on record as 10.2%.

As to `Oc1cc(O)cc(/C=C/c2cc(O)c(O)c(O)c2)c1`, the Activity is given as 12.1%.

Molecular target in the next assay: not listed separately
The experiment in a line: Inhibition of yeast alpha-glucosidase.
Details: not given
Further details: species or system Saccharomyces cerevisiae.
As to `O=c1c(-c2ccc(O)cc2)coc2cc(O)cc(O)c12` [GENISTEIN], half-maximal inhibition (IC50) was put at 10.4 µM. The same measure, in the same setting: the result for `OC[C@H]1OC(O)[C@H](O)[C@@H](O)[C@@H]1O` (stereo partly drawn) [DEXTROSE] reads 2.6 µM.

Molecular target in a further assay: not listed separately
The experiment in a line: Inhibition of baker's yeast alpha-glucosidase using p-nitrophenyl-alpha-glucopyranoside as substrate by spectrophotometric analysis. Set-up: species or system Saccharomyces cerevisiae.
Details: not given
In the case of `CC(=O)NC[C@H]1N[C@H](CO)[C@@H](O)[C@@H]1O`, the IC50 amounted to 280 µM. Take `O=C(NC[C@H]1N[C@H](CO)[C@@H](O)[C@@H]1O)C1Cc2ccccc21` (stereo partly drawn): it took 0.15 µM to reach half-maximal inhibition (IC50) and the Ki came out at 0.053 µM.

Molecular target in another assay: not listed separately
The assay is described as follows: Inhibition of rat intestinal maltase.
Details: not given
Consider `O=[N+]([O-])c1ccccc1CO[C@@H](CO)[C@H](O)C[S+]1C[C@@H](O)[C@H](O)[C@H]1CO` (single isomer, unassigned), for which the IC50 was 0.042 µM.

Take `OC[C@@H]1[C@@H](O)[C@H](O)C[S@@+]1C[C@@H](O)[C@@H](O)CO`: half-maximal inhibition (IC50) required 1.6 µM.
